Numbers after ± are expanded uncertainties.
What was measured:
[1] = relative permittivity at zero frequency (dimensionless); xn = mol fraction of the nth substance listed; conditions: 293.15 K, 91.3 kPa, Liquid, Coaxial cylinder capacitor
[2] = relative permittivity at zero frequency (dimensionless); conditions: 293.15 K; 91.3 kPa; Liquid; Coaxial cylinder capacitor
[3] = refractive index (Na D-line) (dimensionless); conditions: 293.15 K; 101.33 kPa; Liquid; Standard Abbe refractometry
[4] = Liquid; for mass density: 293.15 K, 101.33 kPa, Pycnometric method; for Normal boiling temperature: Ebulliometric method (Recirculating still)

In the case of `CCO` [ethanol] + O, the “relative permittivity at zero frequency” value ([1]; x1 = 0.05) is reported as 74.7 ± 0.24, the “relative permittivity at zero frequency” value ([1]; x1 = 0.1) is reported as 69.4 ± 0.22 and the “relative permittivity at zero frequency” value ([1]; x1 = 0.2) is reported as 59.98 ± 0.19. The “relative permittivity at zero frequency” value ([1]; x1 = 0.3) was 52.2 ± 0.17, the “relative permittivity at zero frequency” value ([1]; x1 = 0.4) was 46.1 ± 0.15 and the “relative permittivity at zero frequency” value ([1]; x1 = 0.5) was 41.1 ± 0.13. For the same molecule, the “relative permittivity at zero frequency” value ([1]; x1 = 0.6) was 37.01 ± 0.12, the “relative permittivity at zero frequency” value ([1]; x1 = 0.7) was 33.5 ± 0.11 and the “relative permittivity at zero frequency” value ([1]; x1 = 0.8) was 30.36 ± 0.1. The “relative permittivity at zero frequency” value ([1]; x1 = 0.9) was 27.55 ± 0.09, the “relative permittivity at zero frequency” value ([1]; x1 = 0.95) was 26.28 ± 0.08 and the “relative permittivity at zero frequency” value ([1]; x1 = 0.98) was 25.53 ± 0.08. For the same molecule, the “relative permittivity at zero frequency” value ([1]; x1 = 1) was 25.02 ± 0.08.

With `CC(=O)O` [acetic acid] the “relative permittivity at zero frequency” value [2] was 6.15 ± 0.02, the refractive index [3] was 1.372 ± 0.0028 and the mass density [4] was 1055 ± 4.1 kg/m3. For the same molecule, the Normal boiling temperature [4] was 118.0 ± 0.51 °C.

With `CCO` [ethanol] the “relative permittivity at zero frequency” value [2] was 25.02 ± 0.08, the refractive index [3] was 1.3612 ± 0.0028 and the mass density [4] was 790 ± 2.1 kg/m3. For the same molecule, the Normal boiling temperature [4] was 78.20 ± 0.51 °C.

In the case of `O` [water] + CCO, the “relative permittivity at zero frequency” value ([1]; x2 = 0) is reported as 79.99 ± 0.25.

For `CO` [methanol] + O, the “relative permittivity at zero frequency” value ([1]; x1 = 0.05) was 76.058 ± 0.24, the “relative permittivity at zero frequency” value ([1]; x1 = 0.1) was 72.27 ± 0.23 and the “relative permittivity at zero frequency” value ([1]; x1 = 0.2) was 65.58 ± 0.21. The “relative permittivity at zero frequency” value ([1]; x1 = 0.3) was 59.67 ± 0.19, the “relative permittivity at zero frequency” value ([1]; x1 = 0.4) was 54.7 ± 0.17 and the “relative permittivity at zero frequency” value ([1]; x1 = 0.5) was 50.22 ± 0.16. For the same molecule, the “relative permittivity at zero frequency” value ([1]; x1 = 0.6) was 46.22 ± 0.15, the “relative permittivity at zero frequency” value ([1]; x1 = 0.7) was 42.54 ± 0.14 and the “relative permittivity at zero frequency” value ([1]; x1 = 0.8) was 39.18 ± 0.12. The “relative permittivity at zero frequency” value ([1]; x1 = 0.9) was 36.1 ± 0.12, the “relative permittivity at zero frequency” value ([1]; x1 = 0.95) was 34.65 ± 0.11 and the “relative permittivity at zero frequency” value ([1]; x1 = 0.98) was 33.72 ± 0.11. For the same molecule, the “relative permittivity at zero frequency” value ([1]; x1 = 1) was 33 ± 0.11.

With `CC(=O)O` [acetic acid] + O the “relative permittivity at zero frequency” value ([1]; x1 = 0.05) was 73.5 ± 0.23, the “relative permittivity at zero frequency” value ([1]; x1 = 0.1) was 67.7 ± 0.22 and the “relative permittivity at zero frequency” value ([1]; x1 = 0.2) was 58 ± 0.18. For the same molecule, the “relative permittivity at zero frequency” value ([1]; x1 = 0.3) was 49.4 ± 0.16, the “relative permittivity at zero frequency” value ([1]; x1 = 0.4) was 41.8 ± 0.13 and the “relative permittivity at zero frequency” value ([1]; x1 = 0.5) was 34.9 ± 0.11. For the same molecule, the “relative permittivity at zero frequency” value ([1]; x1 = 0.6) was 28.5 ± 0.09, the “relative permittivity at zero frequency” value ([1]; x1 = 0.7) was 22.41 ± 0.07 and the “relative permittivity at zero frequency” value ([1]; x1 = 0.8) was 16.55 ± 0.05. The “relative permittivity at zero frequency” value ([1]; x1 = 0.9) was 11.11 ± 0.04, the “relative permittivity at zero frequency” value ([1]; x1 = 0.95) was 8.64 ± 0.03 and the “relative permittivity at zero frequency” value ([1]; x1 = 0.98) was 7.25 ± 0.02. The “relative permittivity at zero frequency” value ([1]; x1 = 1) was 6.15 ± 0.02.

With `O` [water] + CC(=O)O the “relative permittivity at zero frequency” value ([1]; x2 = 0) was 79.99 ± 0.25.

In the case of `O` [water] + CO, the “relative permittivity at zero frequency” value ([1]; x2 = 0) is reported as 79.99 ± 0.25.

With `CO` [methanol] the “relative permittivity at zero frequency” value [2] was 33 ± 0.11, the refractive index [3] was 1.328 ± 0.0027 and the mass density [4] was 793 ± 2.1 kg/m3. The Normal boiling temperature [4] was 64.70 ± 0.51 °C.

For `O` [water], the “relative permittivity at zero frequency” value [2] was 79.99 ± 0.25, the refractive index [3] was 1.3342 ± 0.0028 and the mass density [4] was 999 ± 2.2 kg/m3. It also gave a Normal boiling temperature [4] of 100.0 ± 0.5 °C.

Reference: the NIST ThermoML archive (doi:10.1016/j.jct.2012.08.009)
